From ChEMBL document CHEMBL4196231, “Peptidomimetics for Targeting Protein-Protein Interactions between DOT1L and MLL Oncofusion Proteins AF9 and ENL” (ACS Med Chem Lett, 2018)
Square brackets hold non-standard residues; d marks the D form. Peptide text beside a SMILES is read from it. * marks the point of attachment. X3 = c1ccc(-c2cn(CC3CCCCC3)c([C@@H]3CCCN3*)n2)cc1; X2 = CC(C)n1cc(-c2ccccc2)nc1[C@@H]1CCCN1*; X1 = CCn1cc(-c2ccccc2)nc1[C@@H]1CCCN1*; 1Nal = N[C@@H](Cc1cccc2ccccc12)C(=O)O; 2Nal = N[C@@H](Cc1ccc2ccccc2c1)C(=O)O; X4 = Cn1cc(-c2ccccc2)nc1[C@@H]1CCCN1*; Ala(cPent) = N[C@@H](CC1CCCC1)C(=O)O; Ala(cPr) = N[C@@H](CC1CC1)C(=O)O; Pentanoyl(4-Me) = CC(C)CCC(=O)*; Cha = N[C@@H](CC1CCCCC1)C(=O)O; Cba = N[C@@H](CC1CCC1)C(=O)O; Chg = N[C@H](C(=O)O)C1CCCCC1; Orn = NCCC[C@H](N)C(=O)O; Dap = NC[C@H](N)C(=O)O; Bz = O=C(c1ccccc1)*

Columns and labels:
Protein AF-9 = molecular target: T1, Protein AF-9 (Homo sapiens, UniProt P42568); test: Displacement of N-Flu-DOT1L from MBP-tagged AF9 (unknown origin) (487 to 568 residues) expressed in Escherichia coli BL21(DE3) measured after 3 hrs by fluorescence polarization assay
T1 sequence (P42568 whole entry): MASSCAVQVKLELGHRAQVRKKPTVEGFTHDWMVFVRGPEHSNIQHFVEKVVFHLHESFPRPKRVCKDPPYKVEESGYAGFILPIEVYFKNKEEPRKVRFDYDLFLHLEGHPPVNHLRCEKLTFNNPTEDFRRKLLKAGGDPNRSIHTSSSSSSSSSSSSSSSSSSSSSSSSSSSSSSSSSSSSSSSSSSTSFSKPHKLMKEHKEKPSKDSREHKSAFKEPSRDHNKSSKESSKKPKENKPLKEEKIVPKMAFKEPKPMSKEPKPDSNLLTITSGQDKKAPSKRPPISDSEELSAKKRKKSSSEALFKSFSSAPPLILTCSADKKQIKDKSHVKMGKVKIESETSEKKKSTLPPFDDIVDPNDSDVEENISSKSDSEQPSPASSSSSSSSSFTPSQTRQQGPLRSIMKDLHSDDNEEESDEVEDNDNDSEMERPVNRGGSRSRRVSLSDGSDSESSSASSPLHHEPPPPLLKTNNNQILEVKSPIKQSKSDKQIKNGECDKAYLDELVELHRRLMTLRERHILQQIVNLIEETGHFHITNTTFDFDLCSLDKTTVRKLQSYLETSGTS

Protein ENL = molecular target: T2, Protein ENL (Homo sapiens, UniProt Q03111); test: Displacement of N-Flu-DOT1L from MBP-tagged ENL (unknown origin) (489 to 559 residues) expressed in Escherichia coli BL21(DE3) measured after 3 hrs by fluorescence polarization assay
T2 sequence (Q03111 whole entry): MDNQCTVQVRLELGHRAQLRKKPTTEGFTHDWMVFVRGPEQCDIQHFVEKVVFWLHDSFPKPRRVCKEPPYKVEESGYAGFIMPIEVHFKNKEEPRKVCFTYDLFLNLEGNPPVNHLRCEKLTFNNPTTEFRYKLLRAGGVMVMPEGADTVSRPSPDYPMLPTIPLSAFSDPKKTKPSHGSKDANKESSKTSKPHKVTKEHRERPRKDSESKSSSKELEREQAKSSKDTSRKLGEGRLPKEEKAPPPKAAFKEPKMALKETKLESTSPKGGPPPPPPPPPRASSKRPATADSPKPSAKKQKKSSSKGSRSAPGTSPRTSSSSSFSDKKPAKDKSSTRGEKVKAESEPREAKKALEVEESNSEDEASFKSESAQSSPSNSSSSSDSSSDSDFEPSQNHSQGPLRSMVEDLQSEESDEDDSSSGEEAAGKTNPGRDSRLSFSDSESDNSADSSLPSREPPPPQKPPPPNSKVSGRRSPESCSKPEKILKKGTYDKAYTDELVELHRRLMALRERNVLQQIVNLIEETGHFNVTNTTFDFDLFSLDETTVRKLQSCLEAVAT

Compound | IC50 (Protein AF-9) [µM] | Ki (Protein AF-9) [µM] | IC50 (Protein ENL) [µM] | Ki (Protein ENL) [µM]
CC[C@H](C)[C@H](NC(=O)[C@H](CO)NC(=O)[C@H](CC1CCC1)NC(=O)[C@@H]1CCCN1C(=O)[C@H](CC(C)C)NC(C)=O)C(=O)N1CCC[C@H]1C(=O)N[C@@H](CC(C)C)C(=O)N(C)C (Ac-LP[Cba]SIPL-NMe2) | 7.23 | 1.31 | 23.6 | 8.04
CC[C@H](C)[C@H](NC(=O)[C@@H]1CCCN1C(=O)[C@H](CC(C)C)NC(C)=O)C(=O)N[C@@H](CO)C(=O)N[C@@H](CC1CCCC1)C(=O)N1CCC[C@H]1C(=O)N[C@@H](CC(C)C)C(=O)N(C)C (Ac-LPIS[Ala(cPent)]PL-NMe2) | 0.85 | 0.13 | 2.17 | 0.51
CC(C)[C@H](NC(=O)[C@@H]1CCCN1C(=O)c1ccccc1)C(=O)N[C@@H](CN)C(=O)N[C@@H](CC1CCCC1)C(=O)N1CCC[C@H]1c1nc(-c2ccccc2)cn1CC1CCCCC1 (Bz-PV[Dap][Ala(cPent)]-X3) | 0.057 | 0.009 | 0.504 | 0.119
CC[C@H](C)[C@H](NC(=O)[C@@H]1CCCN1C(=O)[C@H](CC(C)C)NC(C)=O)C(=O)N[C@@H](CO)C(=O)N[C@@H](Cc1ccccc1)C(=O)N1CCC[C@H]1C(=O)N[C@@H](CC(C)C)C(=O)N(C)C (Ac-LPISFPL-NMe2) | 1.66 | 0.28 | 22.7 | 7.73
CC[C@H](C)[C@H](NC(=O)[C@@H]1CCCN1C(=O)[C@H](CC(C)C)NC(C)=O)C(=O)N[C@@H](CN)C(=O)N[C@H](C(=O)N1CCC[C@H]1C(=O)N[C@@H](CC(C)C)C(=O)N(C)C)[C@@H](C)CC (Ac-LPI[Dap]IPL-NMe2) | 1.2 | 0.19 | 4.25 | 1.24
CC[C@H](C)[C@H](NC(=O)[C@H](CO)NC(=O)[C@H](CC1CC1)NC(=O)[C@@H]1CCCN1C(=O)[C@H](CC(C)C)NC(C)=O)C(=O)N1CCC[C@H]1C(=O)N[C@@H](CC(C)C)C(=O)N(C)C (Ac-LP[Ala(cPr)]SIPL-NMe2) | 4.29 | 0.78 | 14.6 | 4.89
CC(=O)N[C@@H](CC(C)C)C(=O)N1CCC[C@H]1C(=O)N[C@H](C(=O)N[C@@H](CN)C(=O)N[C@@H](CC1CCCC1)C(=O)N1CCC[C@H]1c1nc(-c2ccccc2)cn1C(C)C)C(C)C (Ac-LPV[Dap][Ala(cPent)]-X2) | 0.369 | 0.057 | 1.22 | 0.287
CC[C@H](C)[C@H](NC(=O)[C@@H]1CCCN1C(=O)[C@H](CC(C)C)NC(C)=O)C(=O)N[C@@H](CO)C(=O)N[C@H](C(=O)N1CCC[C@H]1C(=O)N[C@@H](CC(C)C)C(=O)N(C)C)[C@@H](C)CC (Ac-LPISIPL-NMe2) | 1.78 | 0.3 | 6.83 | 2.15
CC[C@H](C)[C@H](NC(=O)[C@@H]1CCCN1C(=O)[C@H](CC(C)C)NC(C)=O)C(=O)N[C@@H](CN)C(=O)N[C@@H](CC1CCCC1)C(=O)N1CCC[C@H]1C(=O)N[C@@H](CC(C)C)C(=O)N(C)C (Ac-LPI[Dap][Ala(cPent)]PL-NMe2) | 0.12 | 0.02 | 0.39 | 0.09
CC[C@H](C)[C@H](NC(=O)[C@@H]1CCCN1C(=O)[C@H](CC(C)C)NC(C)=O)C(=O)N[C@@H](CO)C(=O)N[C@@H](Cc1cccc2ccccc12)C(=O)N1CCC[C@H]1C(=O)N[C@@H](CC(C)C)C(=O)N(C)C (Ac-LPIS[1Nal]PL-NMe2) | 14.2 | 2.6 | 57.8 | 20.1
CC[C@H](C)[C@H](NC(=O)[C@@H]1CCCN1C(=O)[C@H](CC(C)C)NC(C)=O)C(=O)N[C@@H](CO)C(=O)N[C@H](C(=O)N1CCC[C@H]1C(=O)N[C@@H](CC(C)C)C(=O)N(C)C)C1CCCCC1 (Ac-LPIS[Chg]PL-NMe2) | 3.49 | 0.62 | 10.5 | 3.44
CC(=O)N[C@@H](CC(C)C)C(=O)N1CCC[C@H]1C(=O)N[C@H](C(=O)N[C@@H](CN)C(=O)N[C@@H](CC1CCCC1)C(=O)N1CCC[C@H]1c1nc(-c2ccccc2)cn1C)C(C)C (Ac-LPV[Dap][Ala(cPent)]-X4) | 0.372 | 0.057 | 1.77 | 0.417
CCn1cc(-c2ccccc2)nc1[C@@H]1CCCN1C(=O)[C@H](CC1CCCC1)NC(=O)[C@H](CN)NC(=O)[C@@H](NC(=O)[C@@H]1CCCN1C(=O)[C@H](CC(C)C)NC(C)=O)C(C)C (Ac-LPV[Dap][Ala(cPent)]-X1) | 0.341 | 0.05 | 1.57 | 0.369
CC[C@H](C)[C@H](NC(=O)[C@@H]1CCCN1C(=O)[C@H](CC(C)C)NC(C)=O)C(=O)N[C@@H](CO)C(=O)N[C@@H](Cc1c[nH]c2ccccc12)C(=O)N1CCC[C@H]1C(=O)N[C@@H](CC(C)C)C(=O)N(C)C (Ac-LPISWPL-NMe2) | 2.37 | 0.41 | 7.42 | 2.35
CC[C@H](C)[C@H](NC(=O)[C@H](CO)NC(=O)[C@@H](NC(=O)[C@@H]1CCCN1C(=O)[C@H](CC(C)C)NC(C)=O)C(C)C)C(=O)N1CCC[C@H]1C(=O)N[C@@H](CC(C)C)C(=O)N(C)C (Ac-LPVSIPL-NMe2) | 1.1 | 0.17 | 3.6 | 1.01
CC(=O)N[C@@H](CC(C)C)C(=O)N1CCC[C@H]1C(=O)N[C@H](C(=O)N[C@@H](CN)C(=O)N[C@@H](CC1CCCC1)C(=O)N1CCC[C@H]1c1nc(-c2ccccc2)cn1CC1CCCCC1)C(C)C (Ac-LPV[Dap][Ala(cPent)]-X3) | 0.082 | 0.013 | 0.427 | 0.101
CC(C)CCC(=O)N1CCC[C@H]1C(=O)N[C@H](C(=O)N[C@@H](CN)C(=O)N[C@@H](CC1CCCC1)C(=O)N1CCC[C@H]1c1nc(-c2ccccc2)cn1CC1CCCCC1)C(C)C ({Pentanoyl(4-Me)}-PV[Dap][Ala(cPent)]-X3) | 0.149 | 0.023 | 0.237 | 0.056
CC[C@H](C)[C@H](NC(=O)[C@@H]1CCCN1C(=O)[C@H](CC(C)C)NC(C)=O)C(=O)N[C@@H](CO)C(=O)N[C@@H](CC1CCCCC1)C(=O)N1CCC[C@H]1C(=O)N[C@@H](CC(C)C)C(=O)N(C)C (Ac-LPIS[Cha]PL-NMe2) | 1.14 | 0.18 | 6.06 | 1.88
Ac-LPISIPL-NH2 | 1.04 | 0.16 | 10.3 | 3.37
CC[C@H](C)[C@H](NC(=O)[C@@H]1CCCN1C(=O)[C@H](CC(C)C)NC(C)=O)C(=O)N[C@@H](CO)C(=O)N[C@@H](CC(C)C)C(=O)N1CCC[C@H]1C(=O)N[C@@H](CC(C)C)C(=O)N(C)C (Ac-LPISLPL-NMe2) | 4.66 | 0.83 | 18.6 | 6.29
CC[C@H](C)[C@H](NC(=O)[C@H](CO)NC(=O)[C@H](CC(C)C)NC(=O)[C@@H]1CCCN1C(=O)[C@H](CC(C)C)NC(C)=O)C(=O)N1CCC[C@H]1C(=O)N[C@@H](CC(C)C)C(=O)N(C)C (Ac-LPLSIPL-NMe2) | 6.4 | 1.16 | 43.9 | 15.2
Ac-LPVSIPL-NH2 | 1.02 | 0.16 | 4.79 | 1.43
CC[C@H](C)[C@H](NC(=O)[C@H](CO)NC(=O)[C@H](Cc1ccccc1)NC(=O)[C@@H]1CCCN1C(=O)[C@H](CC(C)C)NC(C)=O)C(=O)N1CCC[C@H]1C(=O)N[C@@H](CC(C)C)C(=O)N(C)C (Ac-LPFSIPL-NMe2) | 30.5 | 5.62 | 177 | 62
CC[C@H](C)[C@H](NC(=O)[C@@H]1CCCN1C(=O)[C@H](CC(C)C)NC(C)=O)C(=O)N[C@@H](CO)C(=O)N[C@@H](Cc1ccc2ccccc2c1)C(=O)N1CCC[C@H]1C(=O)N[C@@H](CC(C)C)C(=O)N(C)C (Ac-LPIS[2Nal]PL-NMe2) | 4.11 | 0.73 | 42.2 | 14.6
CC[C@H](C)[C@H](NC(=O)[C@@H]1CCCN1C(=O)[C@H](CC(C)C)NC(C)=O)C(=O)N[C@@H](CCCN)C(=O)N[C@H](C(=O)N1CCC[C@H]1C(=O)N[C@@H](CC(C)C)C(=O)N(C)C)[C@@H](C)CC (Ac-LPI[Orn]IPL-NMe2) | 24.3 | 4.25 | 172 | 60.2
Ac-LPISIPLSTV-NH2 | 0.14 | 0.02 | 0.63 | 0.15
